Experimental data as given in US10653131B2 (priority 2013, dated 2020).

System: spores of Bacillus thuringiensis

## O=[N+]([O-])O [nitric acid]
  destruction, inactivation of spores: ensured destruction, inactivation
